This experiment deals with T1, human corticosteroid-binding globulin (CBG; SERPINA6) (Homo sapiens, UniProt P08185).
T1 construct: RCL intact; no tag
T1 sequence (P08185 23-405): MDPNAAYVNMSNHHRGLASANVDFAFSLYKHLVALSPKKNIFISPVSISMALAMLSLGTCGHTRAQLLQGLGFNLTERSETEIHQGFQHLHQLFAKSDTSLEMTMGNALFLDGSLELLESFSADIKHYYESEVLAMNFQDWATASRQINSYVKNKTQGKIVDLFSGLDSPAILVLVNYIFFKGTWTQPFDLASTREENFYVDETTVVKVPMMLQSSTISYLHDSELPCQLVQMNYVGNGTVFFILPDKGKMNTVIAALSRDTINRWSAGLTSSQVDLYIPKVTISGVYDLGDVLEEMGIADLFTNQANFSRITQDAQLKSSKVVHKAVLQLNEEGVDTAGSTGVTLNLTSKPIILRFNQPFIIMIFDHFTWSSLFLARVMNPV
Nature of the experiment: [3H]-corticosterone saturation binding, Scatchard analysis. The conditions noted are these: labelled compound; steroid-affinity purified plasma CBG, before 9G12 immunoprecipitation, ELISA-discordant sample; unreliable: unit doubtful, see left_out. (An ELISA detects its analyte on a solid surface through an enzyme-linked reagent.)

Structures are written as SMILES.

One may read the Kd as the free concentration of one partner at which half of the binding sites on the other are occupied at equilibrium, for simple one-to-one binding. The low end stands for a tighter complex, the high end for a looser complex. Compound `C[C@]12C[C@H](O)[C@H]3[C@@H](CCC4=CC(=O)CC[C@@]43C)[C@@H]1CC[C@@H]2C(=O)CO` [corticosterone] registered a Kd of 1.72 nM.

Source of the values: article PMC6347282, “Neutrophil elastase-cleaved corticosteroid-binding globulin is absent in human plasma” (The Journal of Endocrinology, 2018).
